# Results: BindingDB's records for doi:10.1016/0006-2952(81)90220-3 (Royal Postgraduate Medical School, 1981)
# “And” between values parts separate entries of the source, which are not always exact repeats. Equal values may be shown once.
# Target: Prostacyclin receptor (Mus musculus, UniProt P43252)
# Sequence (P43252 whole entry): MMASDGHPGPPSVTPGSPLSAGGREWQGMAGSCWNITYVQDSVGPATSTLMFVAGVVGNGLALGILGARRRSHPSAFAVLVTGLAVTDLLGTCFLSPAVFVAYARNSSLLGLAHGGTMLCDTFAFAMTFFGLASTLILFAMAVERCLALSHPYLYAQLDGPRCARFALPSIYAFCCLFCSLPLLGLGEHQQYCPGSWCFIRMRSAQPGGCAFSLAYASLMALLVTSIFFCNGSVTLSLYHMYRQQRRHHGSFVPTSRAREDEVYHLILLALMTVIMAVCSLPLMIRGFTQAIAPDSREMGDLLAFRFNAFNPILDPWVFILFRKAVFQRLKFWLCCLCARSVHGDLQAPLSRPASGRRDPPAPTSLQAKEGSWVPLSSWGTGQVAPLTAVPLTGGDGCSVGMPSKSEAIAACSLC
row,Ki,SMILES
1,0.735 µM,"CCCCC[C@H](O)/C=C/[C@H]1[C@H](O)CC(=O)[C@@H]1C/C=C/CCCC(=O)O [(E)-7-((1R,2R,3R)-3-hydroxy-2-((S,E)-3-hydroxyoct-1-enyl)-5-oxocyclopentyl)hept-5-enoic acid]"
2,> 10 µM,"CCCCC[C@H](O)/C=C/C1[C@H](O)C[C@H](O)[C@@H]1C/C=C\CCCC(=O)O (stereo partly drawn) [(Z)-7-[(1R,3R,5S)-3,5-Dihydroxy-2-((E)-(S)-3-hydroxy-oct-1-enyl)-cyclopentyl]-hept-5-enoic acid]"
3,0.315 µM,CCCCC[C@H](O)CC[C@H]1[C@H](O)CC(=O)[C@@H]1CCCCCCC(=O)O [CAS_19313-28-1]
4,7.35 µM,CCCCCC(O)C=CC1C(O)CC2OC(CCCCC(=O)O)CC21 (stereo not drawn) [CAS_162981]
5,> 10 µM,CCCCC[C@H](O)/C=C/[C@H]1[C@H](O)CC(=O)[C@@H]1C/C=C\CCCC(=O)O [DINOPROSTONE]
6,> 10 µM,CCCCCC(O)C=CC1C(O)CC(O)C1CCCCCCC(=O)O (stereo not drawn) [NSC_5280939]

# The remaining lines, values behind:
row,SMILES,Ki
1,CCCCC[C@@H](O)/C=C/[C@H]1[C@H](O)CC(=O)[C@@H]1C/C=C\CCCC(=O)O,> 10 µM
2,CCCCC[C@@H](O)/C=C/[C@H]1[C@H](O)CC(=O)[C@@H]1CCCCCCC(=O)O,0.137 µM
3,CCCCC[C@H](O)/C=C/[C@@H]1[C@H]2C/C(=C\CCCC(=O)O)C[C@H]2C[C@H]1O,0.0166 µM
4,"CCCCC[C@H](O)/C=C/[C@@H]1[C@@H](CC(=O)CCC(=O)O)[C@@H](O)C[C@H]1O [2,3-dinor-6-ketoprostaglandin F1alpha]",> 10 µM
5,CCCCC[C@H](O)/C=C/C1[C@H](O)CC(=O)[C@H]1CCCCCCC(=O)O (stereo partly drawn) [8-ISO PROSTAGLANDIN E1],0.735 µM
6,"CCCCCC(=O)CC[C@H]1[C@H](O)CC(=O)[C@@H]1C/C=C\CCCC(=O)O [13,14-DIHYDRO-15-KETO PROSTAGLANDIN E2]",8.41 µM and > 10 µM
7,O=C(O)CCC/C=C\C[C@H]1C(=O)C[C@@H](O)[C@@H]1/C=C/[C@@H](O)CCc1ccccc1 [17-PHENYL TRINOR PROSTAGLANDIN E2],4.37 µM
